Source: article PMC8222254, “Self-assembly of an anion receptor with metal-dependent kinase inhibition and potent in vitro anti-cancer properties” (Nature Communications, 2021)
Several values for one entry are separate records, joined by “and”; a condition that tells them apart may be missing. Equal values may be shown once. Read-outs that look alike come from different tables or passages of the source.

What was measured:
Assay in all cases: Chemosensitivity, 96 h continuous exposure, MTT assay
Format in all cases: cell-based, human
ARPE-19 non-cancer cells = test system: ARPE-19 non-cancer cells
Description: (§1) All cell lines were purchased from and maintained as monolayers as described by the American Type Culture Collection with the exception of the p53^+/+ and p53^−/− isogenic clones of HCT116 human colorectal adenocarcinoma cells which were a kind gift from Professor Bert Vogelstein[54]. GBM1 cells were established from a primary GBM tumour by Heiko Wurdak and colleagues[32],[33]. Non-cancerous adult brain neural progenitor (NP1) cells were derived from a patient undergoing surgery to treat epilepsy[32],[33]. Cell culture and growth media for NP1 and GBM1 cells were as described[32],[33]. The response of cells following a continuous 96-h exposure to test compounds and platinates was determined using the MTT assay. Potency was recorded as the IC50 and the selectivity index (SI) was defined as the ratio of IC50 values for non-cancer to cancer cell lines with values >1 representing selectivity for cancer cells as opposed to non-cancer cells.
(§2) All cell lines used were maintained at low passage in antibiotic-free media. HT29, DLD-1, HCT116 p53^+/+ and HCT116 p53^−/− are all colorectal adenocarcinoma cell lines derived from different individuals and harbour different combinations of oncogenic lesions (except for the HCT116 isogenic cancer cell clones that are genetically identical except for p53 status). PSN-1, BxPC-3 and MiaPaCa2 are pancreatic carcinoma cell lines and A549 and H460 are lung carcinoma cell lines. HT29, DLD-1, PSN-1, BxPC-3, A549 and H460 cell lines were cultured in RPMI-1640 growth media (Sigma) containing 2 mM L-glutamine, 1 mM sodium pyruvate and 10% foetal bovine serum (FBS). HCT116 (p53^+/+ and p53^−/−) and MiaPaCa2 cell lines were cultured in Dulbecco’s Modified Eagle’s Medium (Sigma), 2 mM L-glutamine and 10% FBS. The ARPE-19 retinal epithelial non-cancer cell line was cultured in DMEM/F12 media (Gibco), 2 mM L-glutamine, 1 mM sodium pyruvate and 10% FBS. The MCF10A non-cancerous human breast epithelial cell line was cultured in Minimal Essential Media Eagle (Sigma), 2 mM L-glutamine, 1 mM sodium pyruvate, 10% FBS and 1x non-essential amino acids (NEAA). NP1 and GBM1 cells were cultured on plasticware coated with poly-L-ornithine (5 µg/ml) and laminin (2.4 µg/ml)[32],[33]. NP1 cells were grown in DMEM/F12 media (Gibco) supplemented with 5% FBS, 20 ng/ml hFGF, 20 ng/ml rhEGF, 0.5x B-27 supplement (Gibco), 0.5x N-2 supplement (Gibco) and 1x GLUTAMAX (Gibco). GBM1 cells were cultured in Neurobasal media (Gibco) supplemented with 40 ng/ml hFGF, 40 ng/ml rhEGF, 0.5x B-27 supplement (Gibco) and 0.5x N-2 supplement (Gibco).
(§3) [L2(Metal)3]^6+ and all the other self-assembling complexes were freshly formed by adding DMSO to individual components and mixing together by pipetting. These were then further diluted in cell culture media such that the final DMSO concentration that cells were exposed to was 0.2% (vehicle control). Cisplatin, oxaliplatin and carboplatin were dissolved in phosphate buffered saline. Cell lines were seeded into 96 well plates at 2 × 10^3 cells per well and incubated overnight at 37 °C. GBM1 cancer stem-like cells were seeded at 3 × 10^3 cells per well and NP1 neural progenitors were seeded at 1.5 × 10^3 cells per well. The following day, media was removed and replaced with fresh media containing test compounds at a range of concentrations. Cells were incubated with test compounds for a further 96 h after which the media was removed and replaced with fresh media (200 μl/well). MTT was added (20 μl at 5 mg/ml) and cells were incubated for a further 4 h. Media and MTT were removed and formazan crystals were dissolved in 150 μl of DMSO and the absorbance of the resulting solution determined at 540 nm. Dose response curves were constructed, and the concentration required to reduce cell growth by 50% (IC50) determined.

MiaPaCa2 = test system: MiaPaCa2
Description: as §1, §2, §3

DLD-1 = test system: DLD-1
Description: as §1, §2, §3

PSN1 = test system: PSN1
Description: as §1, §2, §3

CC(=O)[O-].CC(=O)[O-].CC(=O)[O-].CC(=O)[O-].CC(=O)[O-].CC(=O)[O-].[Zn+2].[Zn+2].[Zn+2].c1ccc(-c2csc(NCCN(CCNc3nc(-c4ccccn4)cs3)CCNc3nc(-c4ccccn4)cs3)n2)nc1.c1ccc(-c2csc(NCCN(CCNc3nc(-c4ccccn4)cs3)CCNc3nc(-c4ccccn4)cs3)n2)nc1 [[L2Zn3]6+]
IC50 (ARPE-19 non-cancer cells; ARPE-19, 96 h, MTT, individual run, read-out: IC50 values for each replicate): 154 µM and 160 µM and 144 µM and 171 µM
IC50 (ARPE-19 non-cancer cells; ARPE-19, 96 h, MTT, mean of at least 3 independent experiments, read-out: Mean IC50): 157 µM
IC50 (ARPE-19 non-cancer cells; ARPE-19, mean of replicates, read-out: Mean IC50): 157 µM
IC50 (ARPE-19 non-cancer cells; ARPE-19 non-cancer, read-out: Mean IC50 values): 157 µM
Relative potency (+ anion to no anion), Ratio + anion:no anion (ARPE-19 non-cancer cells; ratio of IC50, ARPE-19): 1
Selectivity index (ARPE19) (MiaPaCa2; IC50 ARPE-19 / IC50 MiaPaCa2): 2.66
Selectivity index (MCF10A) (MiaPaCa2; IC50 MCF10A / IC50 MiaPaCa2): 2.74
Selectivity Index using the NPI non-cancer cell line (MiaPaCa2; IC50 NP1 / IC50 MiaPaCa2): 0.13
IC50 (MiaPaCa2; MiaPaCa2, 96 h, MTT, individual run, read-out: IC50 values for each replicate): 11.9 µM and 15 µM and 16.3 µM
IC50 (MiaPaCa2; MiaPaCa2, mean of replicates, read-out: Mean IC50): 59.1 µM
IC50 (MiaPaCa2; MiaPaCa2, read-out: Mean IC50 values): 59.1 µM
IC50 (MiaPaCa2; MiaPaCa2, single replicate, read-out: IC50 values for each replicate): 52.7 µM and 64.8 µM and 64.5 µM and 54.3 µM
SI (ARPE19) (MiaPaCa2; mean IC50 ARPE-19 / mean IC50 MiaPaCa2): 10.90
SI (MCF10A) (MiaPaCa2; mean IC50 MCF10A / mean IC50 MiaPaCa2): 11.21
SI (NPI) (MiaPaCa2; mean IC50 NP1 / mean IC50 MiaPaCa2): 0.54
Relative potency (+ anion to no anion), Ratio + anion:no anion (MiaPaCa2; ratio of IC50, MiaPaCa2): 1
Selectivity indices relative to ARPE-19, Ratio + anion:no anion (MiaPaCa2; ratio of SI (ARPE-19), MiaPaCa2): 1
Selectivity indices relative to MCF10A, Ratio + anion:no anion (MiaPaCa2; ratio of SI (MCF 10A), MiaPaCa2): 1
IC50 (DLD-1; DLD-1, 96 h, MTT, individual run, read-out: IC50 values for each replicate): 0.216 µM and 0.089 µM and 0.084 µM and 0.141 µM and 0.222 µM and 0.211 µM and 0.225 µM
IC50 (DLD-1; DLD-1, 96 h, MTT, mean of at least 3 independent experiments, read-out: Mean IC50): 0.17 µM
IC50 (DLD-1; DLD-1, mean of replicates, read-out: Mean IC50): 0.17 µM
IC50 (DLD-1; DLD-1, read-out: Mean IC50 values): 0.17 µM
Selectivity index (ARPE19) (DLD-1; IC50 ARPE-19 / IC50 DLD-1): 925.00
Selectivity index (MCF10A) (DLD-1; IC50 MCF10A / IC50 DLD-1): 950.82
Selectivity Index using the NPI non-cancer cell line (DLD-1; IC50 NP1 / IC50 DLD-1): 45.76
SI (ARPE19) (DLD-1; mean IC50 ARPE-19 / mean IC50 DLD-1): 925.00
SI (MCF10A) (DLD-1; mean IC50 MCF10A / mean IC50 DLD-1): 950.82
SI (NPI) (DLD-1; mean IC50 NP1 / mean IC50 DLD-1): 45.76
Relative potency (+ anion to no anion), Ratio + anion:no anion (DLD-1; ratio of IC50, DLD-1): 1
Selectivity indices relative to ARPE-19, Ratio + anion:no anion (DLD-1; ratio of SI (ARPE-19), DLD-1): 1
Selectivity indices relative to MCF10A, Ratio + anion:no anion (DLD-1; ratio of SI (MCF 10A), DLD-1): 1
Selectivity index (ARPE19) (PSN1; IC50 ARPE-19 / IC50 PSN1): 35.39
Selectivity index (MCF10A) (PSN1; IC50 MCF10A / IC50 PSN1): 36.38
Selectivity Index using the NPI non-cancer cell line (PSN1; IC50 NP1 / IC50 PSN1): 1.75
IC50 (PSN1; PSN1, 96 h, MTT, individual run, read-out: IC50 values for each replicate): 6.2 µM and 4.88 µM and 2.25 µM
IC50 (PSN1; PSN1, 96 h, MTT, mean of at least 3 independent experiments, read-out: Mean IC50): > 1 µM
IC50 (PSN1; PSN1, mean of replicates, read-out: Mean IC50): 4.44 µM
IC50 (PSN1; PSN1, read-out: Mean IC50 values): 4.44 µM
SI (ARPE19) (PSN1; mean IC50 ARPE-19 / mean IC50 PSN1): 35.39
SI (MCF10A) (PSN1; mean IC50 MCF10A / mean IC50 PSN1): 36.38
SI (NPI) (PSN1; mean IC50 NP1 / mean IC50 PSN1): 1.75
